Like-named read-outs stand apart in the source and are kept apart here.
Legend:
hSERT = molecular target: T1, hSERT (Homo sapiens, UniProt P31645); test: hSERT binding assay (Assay 1)
T1 construct: expressed in transfected cells; host or cells: HEK-293 derived cell line, stably transfected; membrane preparation
Method: (§1) Membrane radioligand binding assays were used to measure competitive inhibition of labeled ligand (^3H-citalopram or ^3H-nisoxetine or ^3H-WIN35428) binding to membranes prepared from cells expressing the respective human recombinant transporter (hSERT or hNET or hDAT) in order to determine the pKi values of test compounds at the transporters.
(§2) Recombinant human embryonic kidney (HEK-293) derived cell lines stably transfected with hSERT or hNET, respectively, were grown in DMEM medium supplemented with 10% dialyzed FBS (for hSERT) or FBS (for hNET), 100 μg/ml penicillin, 100 μg/ml streptomycin, 2 mM L-glutamine and 250 μg/ml of the aminoglycoside antibiotic G418, in a 5% CO2 humidified incubator at 37° C. When cultures reached 80% confluence, the cells were washed thoroughly in PBS (without Ca^2+ and Mg^2+) and lifted with 5 mM EDTA in PBS. Cells were pelleted by centrifugation, resuspended in lysis buffer (10 mM Tris-HCl, pH 7.5 containing 1 mM EDTA), homogenized, pelleted by centrifugation, then resuspended in 50 mM Tris-HCl, pH 7.5 and 10% sucrose at 4° C. Protein concentration of the membrane suspension was determined using a Bio-Rad Bradford Protein Assay kit. Membranes were snap frozen and stored at −80° C. Chinese hamster ovary membranes expressing hDAT (CHO-DAT) were purchased from PerkinElmer and stored at −80° C.
(§3) Stock solutions (10 mM in DMSO) of test compound were prepared and serial dilutions made using Dilution Buffer (50 mM Tris-HCl, 120 mM NaCl, 5 mM KCl, pH 7.4, 0.1% BSA, 400 μM ascorbic acid).
(§4) Following a 60 minute incubation at 22° C. (or a period sufficient to reach equilibrium), the membranes were harvested by rapid filtration over a 96-well UniFilter GF/B plate, pretreated with 0.3% polyethyleneimine, and washed 6 times with 300 μl wash buffer (50 mM Tris-HCl, 0.9% NaCl, pH 7.5 at 4° C.). Plates were dried overnight at room temperature, ˜45 μl of MicroScint™-20 (Perkin Elmer) added and bound radioactivity quantitated via liquid scintillation spectroscopy. Competitive inhibition curves and saturation isotherms were analyzed using GraphPad Prism Software package (GraphPad Software, Inc., San Diego, Calif.). IC50 values were generated from concentration response curves using the Sigmoidal Dose Response (variable slope) algorithm in Prism GraphPad.

hNET = molecular target: T2, hNET (Homo sapiens, UniProt P23975); test: hNET binding assay (Assay 1); conditions: read-out: NET pKi (converted)
T2 construct: expressed in transfected cells; host or cells: HEK-293 derived cell line, stably transfected; membrane preparation
Method: as §1, §2, §3, §4

[1] = ratio of SERT Ki to NET Ki from binding assays
[2] = ratio of SERT Ki to NET Ki (binding)

T1 sequence (P31645 whole entry): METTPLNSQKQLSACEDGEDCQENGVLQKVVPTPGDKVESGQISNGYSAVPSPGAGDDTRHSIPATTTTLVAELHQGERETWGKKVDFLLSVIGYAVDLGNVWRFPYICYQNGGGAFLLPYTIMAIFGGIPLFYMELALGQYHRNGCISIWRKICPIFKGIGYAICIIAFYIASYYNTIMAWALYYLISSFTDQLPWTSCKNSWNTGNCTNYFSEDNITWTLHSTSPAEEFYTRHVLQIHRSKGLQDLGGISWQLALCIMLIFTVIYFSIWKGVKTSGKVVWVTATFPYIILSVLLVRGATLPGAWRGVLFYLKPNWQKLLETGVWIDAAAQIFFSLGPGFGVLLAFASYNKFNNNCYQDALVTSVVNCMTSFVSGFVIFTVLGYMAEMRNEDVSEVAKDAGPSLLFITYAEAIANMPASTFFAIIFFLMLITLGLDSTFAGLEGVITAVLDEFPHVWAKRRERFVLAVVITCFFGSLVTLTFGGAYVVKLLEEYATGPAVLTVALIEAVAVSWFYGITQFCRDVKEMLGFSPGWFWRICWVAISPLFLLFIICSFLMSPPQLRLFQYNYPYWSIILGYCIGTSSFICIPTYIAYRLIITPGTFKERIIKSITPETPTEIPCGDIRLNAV
T2 sequence (P23975 whole entry): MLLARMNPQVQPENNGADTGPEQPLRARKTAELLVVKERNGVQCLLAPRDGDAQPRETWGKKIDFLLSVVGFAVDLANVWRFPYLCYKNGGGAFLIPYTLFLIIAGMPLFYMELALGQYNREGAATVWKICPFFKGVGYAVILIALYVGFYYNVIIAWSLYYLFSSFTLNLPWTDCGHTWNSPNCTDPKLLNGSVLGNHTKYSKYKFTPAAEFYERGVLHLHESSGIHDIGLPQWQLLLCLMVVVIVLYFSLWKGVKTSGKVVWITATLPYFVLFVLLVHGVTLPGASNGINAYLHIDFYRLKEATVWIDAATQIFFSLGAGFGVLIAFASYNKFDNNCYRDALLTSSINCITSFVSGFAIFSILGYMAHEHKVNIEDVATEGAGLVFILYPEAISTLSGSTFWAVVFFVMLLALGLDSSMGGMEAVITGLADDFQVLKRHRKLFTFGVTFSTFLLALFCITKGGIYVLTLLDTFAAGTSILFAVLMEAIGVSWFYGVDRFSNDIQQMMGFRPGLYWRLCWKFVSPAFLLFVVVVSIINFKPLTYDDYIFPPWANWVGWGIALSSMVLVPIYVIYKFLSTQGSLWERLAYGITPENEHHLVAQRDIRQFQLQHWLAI

| SMILES | SERT Ki/NET Ki (hSERT; [1]) | Ki (hNET; hNET binding assay) [nM] | SERT Ki/NET Ki (hSERT; [2]) | Ki (hNET; hNET binding) [nM] |
| --- | --- | --- | --- | --- |
| Clc1ccc(Cl)c(OC(c2ccccc2)C2CCNC2)c1 (centres unmarked) [29-11] | 0.2 | 3.98 | – | – |
| Fc1ccc(Cl)c(OC(c2ccccc2)C2CCNC2)c1 (centres unmarked) [29-12] | 2 | 1.58 | – | – |
| Cc1ccc(F)cc1OC(c1ccccc1)C1CCNC1 (centres unmarked) [29-15] | 1.3 | 3.98 | – | – |
| Cc1ccc(F)cc1OC(c1ccccc1)C1CCNC1 (centres unmarked) [29-16] | 7.9 | 1.58 | – | – |
| COc1ccc(Cl)cc1OC(c1ccccc1)C1CCNC1 (centres unmarked) [29-21] | 1 | 3.16 | – | – |
| COc1ccc(Cl)cc1OC(c1ccccc1)C1CCNC1 (centres unmarked) [29-22] | 2.5 | 2.51 | – | – |
| COc1ccc(F)cc1O[C@@H](c1ccccc1)[C@H]1CCNC1 [29-24] | 34 | 1 | – | – |
| COc1ccc(F)cc1O[C@H](c1ccccc1)[C@@H]1CCNC1 [29-25] | 0.3 | 7.94 | – | – |
| Fc1cc(F)cc(C(Oc2cc(Cl)ccc2F)C2CCNC2)c1 (centres unmarked) [30-1] | 3.2 | 1.26 | – | – |
| Fc1cc(F)cc(C(Oc2cc(Cl)ccc2F)C2CCNC2)c1 (centres unmarked) [30-2] | 25 | 0.794 | – | – |
| Fc1cc(F)cc(C(Oc2cc(Cl)ccc2Cl)C2CCNC2)c1 (centres unmarked) [30-3] | 0.3 | 3.98 | – | – |
| Fc1cc(F)cc([C@H](Oc2cc(Cl)ccc2Cl)[C@H]2CCNC2)c1 [30-4] | 2.5 | 3.16 | – | – |
| COc1ccc(F)cc1O[C@@H](c1cc(F)cc(F)c1)[C@H]1CCNC1 [30-5] | 79 | 0.501 | – | – |
| COc1ccc(F)cc1OC(c1cc(F)cc(F)c1)C1CCNC1 (centres unmarked) [30-6] | 0.4 | 5.01 | – | – |
| COc1ccc(Cl)cc1OC(c1cccc(Cl)c1)C1CCNC1 (centres unmarked) [30-9] | 0.6 | 7.94 | – | – |
| Fc1cccc(Cl)c1O[C@@H](c1ccccc1)[C@H]1CCNC1 [31-4] | 40 | 0.126 | – | – |
| Fc1cccc(Cl)c1O[C@H](c1ccccc1)[C@@H]1CCNC1 [31-5] | 1.3 | 0.631 | – | – |
| Cc1cccc(F)c1OC(c1ccccc1)C1CCNC1 (centres unmarked) [31-6] | 2 | 1.58 | – | – |
| Cc1cccc(F)c1O[C@@H](c1ccccc1)[C@H]1CCNC1 [31-7] | 5 | 0.2 | – | – |
| Cc1cccc(Cl)c1OC(c1ccccc1)C1CCNC1 (centres unmarked) [31-11] | 1.3 | 2 | – | – |
| Cc1cccc(Cl)c1O[C@@H](c1ccccc1)[C@H]1CCNC1 [31-12] | 1.6 | 1 | – | – |
| COc1cccc(F)c1OC(c1ccccc1)C1CCNC1 (centres unmarked) [31-15] | 2 | 2 | – | – |
| COc1cccc(F)c1O[C@@H](c1ccccc1)[C@H]1CCNC1 [31-16] | 79 | 0.2 | – | – |

| SMILES | SERT Ki/NET Ki (hSERT; [1]) | Ki (hNET; hNET binding assay) [nM] | SERT Ki/NET Ki (hSERT; [2]) | Ki (hNET; hNET binding) [nM] |
| --- | --- | --- | --- | --- |
| COC(=O)c1cccc(Cl)c1O[C@@H](c1ccccc1)[C@H]1CCNC1 [31-17] | 25 | 3.16 | – | – |
| Cc1ccc(OC(c2ccccc2)C2CCNC2)cc1F (centres unmarked) [33-2] | 0.1 | 5.01 | – | – |
| Fc1cc(Cl)cc(OC(c2ccccc2)C2CCNC2)c1 (centres unmarked) [34-5] | 0.1 | 3.16 | – | – |
| Clc1cc(Br)cc(OC(c2ccccc2)C2CCNC2)c1 (centres unmarked) [34-11] | 0.1 | 2.51 | – | – |
| Clc1cc(Cl)cc(OC(c2ccccc2Cl)C2CCNC2)c1 (centres unmarked) [35-3] | – | – | 0.1 | 3.16 |
| Fc1ccc(C(Oc2cc(Cl)cc(Cl)c2)C2CCNC2)cc1 (centres unmarked) [35-9] | – | – | 0.1 | 7.94 |
| Cc1ccc(C(Oc2cc(Cl)cc(Cl)c2)C2CCNC2)cc1 (centres unmarked) [35-12] | – | – | 0.1 | 7.94 |
| Fc1cc(F)cc(C(Oc2cc(Cl)cc(Cl)c2)C2CCNC2)c1 (centres unmarked) [35-14] | – | – | 0.3 | 2 |
| Fc1cc(F)cc([C@@H](Oc2cc(Cl)cc(Cl)c2)[C@@H]2CCNC2)c1 [35-17] | – | – | 0.2 | 1.58 |
| Fc1cc(Cl)cc(C(Oc2cc(Cl)cc(Cl)c2)C2CCNC2)c1 (centres unmarked) [35-18] | – | – | 0.5 | 5.01 |
| Cc1cc(F)cc(C(Oc2cc(Cl)cc(Cl)c2)C2CCNC2)c1 (centres unmarked) [35-19] | – | – | 0.4 | 6.31 |
| Fc1ccc(O[C@@H](c2ccccc2)[C@H]2CCNC2)c(F)c1F [36-1] | – | – | 0.8 | 6.31 |
| Fc1c(Cl)ccc(O[C@@H](c2ccccc2)[C@H]2CCNC2)c1F [36-3] | – | – | 0.1 | 6.31 |
| Cc1ccc(OC(c2ccccc2)C2CCNC2)c(F)c1F (centres unmarked) [36-5] | – | – | 0.5 | 1.26 |
| Cc1c(F)ccc(OC(c2ccccc2)C2CCNC2)c1F (centres unmarked) [36-7] | – | – | 0.3 | 5.01 |
| Fc1c(Cl)ccc(OC(c2ccccc2)C2CCNC2)c1Cl (centres unmarked) [36-10] | – | – | 0.1 | 3.16 |
| Fc1cc(F)cc(C(Oc2ccc(F)c(F)c2F)C2CCNC2)c1 (centres unmarked) [37-1] | – | – | 4 | 5.01 |
| Fc1cc(F)c(F)c(O[C@H](c2ccccc2)[C@@H]2CCNC2)c1 [38-1] | – | – | 0.2 | 5.01 |
| Fc1cc(F)c(F)c(OC(c2ccccc2)C2CCNC2)c1 (centres unmarked) [38-2] | – | – | 10 | 1.58 |
| Fc1cc(F)c(F)c(OC(c2ccccc2Cl)C2CCNC2)c1 (centres unmarked) [39-2] | – | – | 0.6 | 6.31 |
| Fc1cc(F)cc(C(Oc2cc(F)cc(F)c2F)C2CCNC2)c1 (centres unmarked) [39-3] | – | – | 0.4 | 6.31 |
| Fc1cc(F)cc(C(Oc2cc(Cl)cc(Cl)c2Cl)C2CCNC2)c1 (centres unmarked) [39-5] | – | – | 0.2 | 3.16 |
| COc1ccc(F)c(OC(c2ccccc2)C2CCNC2)c1F (centres unmarked) [40-4] | – | – | 6.3 | 0.631 |

| SMILES | SERT Ki/NET Ki (hSERT; [1]) | Ki (hNET; hNET binding assay) [nM] | SERT Ki/NET Ki (hSERT; [2]) | Ki (hNET; hNET binding) [nM] |
| --- | --- | --- | --- | --- |
| COc1ccc(F)c(F)c1O[C@H](c1ccccc1)[C@@H]1CCNC1 [40-8] | – | – | 1 | 1 |
| Fc1ccc(Cl)c(Cl)c1OC(c1ccccc1)C1CCNC1 (centres unmarked) [40-12] | – | – | 1.3 | 0.251 |
| Fc1ccc(Cl)c(Cl)c1OC(c1ccccc1)C1CCNC1 (centres unmarked) [40-13] | – | – | 0.3 | 0.2 |
| Fc1ccc(Cl)c(F)c1OC(c1ccccc1)C1CCNC1 (centres unmarked) [40-14] | – | – | 0.4 | 0.501 |
| Fc1ccc(Cl)c(F)c1OC(c1ccccc1)C1CCNC1 (centres unmarked) [40-15] | – | – | 1.3 | 0.251 |
| Fc1ccc(Cl)c(F)c1O[C@@H](c1ccccc1)[C@H]1CCNC1 [40-16] | – | – | 10 | 0.158 |
| COc1ccc(F)c(Cl)c1O[C@@H](c1ccccc1)[C@H]1CCNC1 [40-22] | – | – | 13 | 0.631 |
| COc1ccc(F)c(Cl)c1OC(c1ccccc1)C1CCNC1 (centres unmarked) [40-23] | – | – | 0.1 | 3.16 |
| Cc1ccc(F)c(O[C@H](c2ccccc2)[C@@H]2CCNC2)c1F [40-24] | – | – | 0.4 | 1.58 |
| Cc1ccc(F)c(OC(c2ccccc2)C2CCNC2)c1F (centres unmarked) [40-25] | – | – | 2 | 0.501 |
| Cc1ccc(F)c(O[C@@H](c2ccccc2)[C@H]2CCNC2)c1F [40-26] | – | – | 20 | 0.251 |
| Cc1ccc(Cl)c(OC(c2ccccc2)C2CCNC2)c1F (centres unmarked) [40-27] | – | – | 5 | 0.251 |
| Cc1ccc(Cl)c(O[C@H](c2ccccc2)[C@@H]2CCNC2)c1F [40-28] | – | – | 0.4 | 0.794 |
| Cc1ccc(F)c(O[C@H](c2ccccc2)[C@@H]2CCNC2)c1Cl [40-29] | – | – | 0.4 | 0.2 |
| Cc1ccc(F)c(O[C@@H](c2ccccc2)[C@@H]2CCNC2)c1Cl [40-30] | – | – | 0.1 | 5.01 |
| COc1ccc(F)c(OC(c2ccccc2)C2CCNC2)c1Cl (centres unmarked) [40-35] | – | – | 0.3 | 0.398 |
| Fc1cc(F)cc([C@H](Oc2c(F)ccc(F)c2F)[C@H]2CCNC2)c1 [41-1] | – | – | 100 | 0.251 |
| Fc1cc(F)cc(C(Oc2c(F)ccc(F)c2F)C2CCNC2)c1 (centres unmarked) [41-2] | – | – | 1 | 2.51 |
| COc1ccc(F)c(F)c1OC(c1cc(F)cc(F)c1)C1CCNC1 (centres unmarked) [41-4] | – | – | 1 | 1 |
| Fc1cc(F)cc(C(Oc2c(F)ccc(Cl)c2F)C2CCNC2)c1 (centres unmarked) [41-5] | – | – | 50 | 0.2 |
| Fc1cc(F)cc(C(Oc2c(F)ccc(Cl)c2F)C2CCNC2)c1 (centres unmarked) [41-6] | – | – | 1 | 0.501 |
